The source of these data is ChEMBL document CHEMBL2434914 (Bioorg Med Chem Lett, 2013).

Each structure is given as a SMILES string.

Test [1] has as its target T1, Protein deacetylase HDAC6 (Homo sapiens, UniProt Q9UBN7).
T1 sequence (Q9UBN7 whole entry): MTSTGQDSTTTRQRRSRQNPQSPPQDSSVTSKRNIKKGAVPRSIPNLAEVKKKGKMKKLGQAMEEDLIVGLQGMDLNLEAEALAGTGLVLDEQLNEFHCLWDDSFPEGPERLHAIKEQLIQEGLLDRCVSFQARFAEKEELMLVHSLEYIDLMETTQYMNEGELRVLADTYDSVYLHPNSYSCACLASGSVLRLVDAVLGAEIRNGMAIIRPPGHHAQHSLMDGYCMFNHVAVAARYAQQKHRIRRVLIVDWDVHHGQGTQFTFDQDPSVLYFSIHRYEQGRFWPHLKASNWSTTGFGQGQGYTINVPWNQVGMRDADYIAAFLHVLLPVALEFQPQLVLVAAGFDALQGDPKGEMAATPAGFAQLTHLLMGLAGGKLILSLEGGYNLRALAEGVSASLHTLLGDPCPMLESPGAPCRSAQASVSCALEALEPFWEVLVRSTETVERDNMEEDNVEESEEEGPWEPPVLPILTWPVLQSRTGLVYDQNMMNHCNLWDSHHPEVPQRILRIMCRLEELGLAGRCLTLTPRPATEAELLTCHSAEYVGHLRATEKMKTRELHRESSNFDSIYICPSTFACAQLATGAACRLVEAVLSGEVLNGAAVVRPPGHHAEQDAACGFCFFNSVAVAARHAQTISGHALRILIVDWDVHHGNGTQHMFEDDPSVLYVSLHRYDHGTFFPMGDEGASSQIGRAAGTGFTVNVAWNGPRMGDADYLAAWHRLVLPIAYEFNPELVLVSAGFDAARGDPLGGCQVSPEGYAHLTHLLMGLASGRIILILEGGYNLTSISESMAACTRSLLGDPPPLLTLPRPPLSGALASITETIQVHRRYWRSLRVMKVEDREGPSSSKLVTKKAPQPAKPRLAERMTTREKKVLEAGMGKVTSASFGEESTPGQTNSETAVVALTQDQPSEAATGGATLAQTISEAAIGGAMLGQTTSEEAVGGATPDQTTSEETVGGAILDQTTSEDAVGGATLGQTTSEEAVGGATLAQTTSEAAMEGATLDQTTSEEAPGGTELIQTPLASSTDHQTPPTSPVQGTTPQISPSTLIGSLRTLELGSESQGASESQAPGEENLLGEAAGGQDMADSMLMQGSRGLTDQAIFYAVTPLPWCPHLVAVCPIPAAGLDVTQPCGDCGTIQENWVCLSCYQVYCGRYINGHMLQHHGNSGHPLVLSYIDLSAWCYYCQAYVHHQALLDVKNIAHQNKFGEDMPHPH
Put plainly: Inhibition of HDAC6 (unknown origin) using MAZ1600 and MAZ1675 as substrate assessed as fluorogenic release of 7-amino-4-methylcoumarin from substrate by optimized homogenous assay.

Test [2] can be described thus: Cytotoxicity against human MM1S cells after 48 hrs by ATPlite assay. Format: functional, cell-based. The note with it: MM1.S.
For another test, the target named is Histone deacetylase 1 (Homo sapiens, UniProt Q13547). Put plainly: Inhibition of HDAC1 (unknown origin) using MAZ1600 and MAZ1675 as substrate assessed as fluorogenic release of 7-amino-4-methylcoumarin from substrate by optimized homogenous assay.
Sequence of Histone deacetylase 1 (Q13547 whole entry): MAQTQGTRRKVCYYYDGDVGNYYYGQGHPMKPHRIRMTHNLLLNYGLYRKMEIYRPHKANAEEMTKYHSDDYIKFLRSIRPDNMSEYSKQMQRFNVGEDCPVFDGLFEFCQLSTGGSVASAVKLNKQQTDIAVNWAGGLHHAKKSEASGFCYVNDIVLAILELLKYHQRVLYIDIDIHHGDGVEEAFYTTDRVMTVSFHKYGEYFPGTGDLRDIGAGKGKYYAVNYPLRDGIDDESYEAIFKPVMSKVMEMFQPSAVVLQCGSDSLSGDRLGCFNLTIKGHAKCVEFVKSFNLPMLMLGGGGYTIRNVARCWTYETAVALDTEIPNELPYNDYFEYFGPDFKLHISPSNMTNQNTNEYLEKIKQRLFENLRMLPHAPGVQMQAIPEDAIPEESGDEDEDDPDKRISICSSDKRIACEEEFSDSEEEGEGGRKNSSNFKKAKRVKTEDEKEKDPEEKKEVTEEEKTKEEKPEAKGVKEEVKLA
For another test, the target named is Histone deacetylase 3 (Homo sapiens, UniProt O15379). Put plainly: Inhibition of HDAC3 (unknown origin) using MAZ1600 and MAZ1675 as substrate assessed as fluorogenic release of 7-amino-4-methylcoumarin from substrate by optimized homogenous assay.
Sequence of Histone deacetylase 3 (O15379 whole entry): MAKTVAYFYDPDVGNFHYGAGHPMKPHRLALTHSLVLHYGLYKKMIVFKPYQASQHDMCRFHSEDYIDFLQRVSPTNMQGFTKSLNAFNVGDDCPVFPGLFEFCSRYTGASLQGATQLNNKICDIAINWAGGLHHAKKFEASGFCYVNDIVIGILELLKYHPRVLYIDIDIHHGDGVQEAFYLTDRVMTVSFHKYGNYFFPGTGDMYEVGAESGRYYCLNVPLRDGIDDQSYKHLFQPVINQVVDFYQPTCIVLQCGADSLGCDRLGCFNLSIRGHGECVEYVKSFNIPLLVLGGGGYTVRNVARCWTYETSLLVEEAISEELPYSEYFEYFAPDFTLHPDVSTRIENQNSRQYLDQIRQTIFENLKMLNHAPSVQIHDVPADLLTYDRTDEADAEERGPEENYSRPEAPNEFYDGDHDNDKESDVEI
In the next test the target is Histone deacetylase 2 (Homo sapiens, UniProt Q92769). Put plainly: Inhibition of HDAC2 (unknown origin) using MAZ1600 and MAZ1675 as substrate assessed as fluorogenic release of 7-amino-4-methylcoumarin from substrate by optimized homogenous assay.
Sequence of Histone deacetylase 2 (Q92769 whole entry): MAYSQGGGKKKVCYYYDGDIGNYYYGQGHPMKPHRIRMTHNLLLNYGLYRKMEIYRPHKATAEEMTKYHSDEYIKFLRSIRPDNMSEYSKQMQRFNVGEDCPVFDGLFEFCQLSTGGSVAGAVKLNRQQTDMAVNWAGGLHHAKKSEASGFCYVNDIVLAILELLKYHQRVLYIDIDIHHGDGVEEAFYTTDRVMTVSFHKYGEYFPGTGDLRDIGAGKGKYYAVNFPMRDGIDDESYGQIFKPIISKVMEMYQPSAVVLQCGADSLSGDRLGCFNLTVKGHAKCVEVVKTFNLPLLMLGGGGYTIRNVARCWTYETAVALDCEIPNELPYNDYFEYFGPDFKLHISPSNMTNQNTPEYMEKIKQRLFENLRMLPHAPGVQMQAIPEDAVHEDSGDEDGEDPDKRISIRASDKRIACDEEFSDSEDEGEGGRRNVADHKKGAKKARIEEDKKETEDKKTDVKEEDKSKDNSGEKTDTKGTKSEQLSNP
In another test the target is T2, Histone deacetylase 7 (Homo sapiens, UniProt Q8WUI4).
T2 sequence (Q8WUI4 whole entry): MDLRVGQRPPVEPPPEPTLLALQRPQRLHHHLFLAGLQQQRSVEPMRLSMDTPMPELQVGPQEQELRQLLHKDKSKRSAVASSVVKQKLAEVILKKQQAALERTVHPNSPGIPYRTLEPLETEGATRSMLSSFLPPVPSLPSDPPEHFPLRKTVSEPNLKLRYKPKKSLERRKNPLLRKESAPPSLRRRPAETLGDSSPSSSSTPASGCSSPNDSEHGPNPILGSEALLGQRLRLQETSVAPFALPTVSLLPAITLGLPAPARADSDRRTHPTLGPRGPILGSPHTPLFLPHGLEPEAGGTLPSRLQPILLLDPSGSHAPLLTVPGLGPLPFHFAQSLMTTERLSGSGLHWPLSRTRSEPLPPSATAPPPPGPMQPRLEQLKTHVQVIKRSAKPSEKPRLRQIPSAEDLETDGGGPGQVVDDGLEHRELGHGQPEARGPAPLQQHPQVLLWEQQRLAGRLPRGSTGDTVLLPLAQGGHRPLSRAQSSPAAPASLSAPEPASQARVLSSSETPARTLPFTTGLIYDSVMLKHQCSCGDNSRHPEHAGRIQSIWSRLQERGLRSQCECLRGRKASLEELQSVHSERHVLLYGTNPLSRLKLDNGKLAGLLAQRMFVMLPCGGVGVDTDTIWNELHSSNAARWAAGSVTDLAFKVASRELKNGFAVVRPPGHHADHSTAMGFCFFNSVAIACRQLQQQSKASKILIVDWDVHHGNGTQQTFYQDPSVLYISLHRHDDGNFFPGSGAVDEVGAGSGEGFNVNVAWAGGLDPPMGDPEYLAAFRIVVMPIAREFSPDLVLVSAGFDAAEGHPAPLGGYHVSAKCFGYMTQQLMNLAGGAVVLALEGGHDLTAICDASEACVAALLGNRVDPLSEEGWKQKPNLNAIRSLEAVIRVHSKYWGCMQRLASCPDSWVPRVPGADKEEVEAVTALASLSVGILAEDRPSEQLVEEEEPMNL
Put plainly: Inhibition of HDAC7 (unknown origin) using MAZ1600 and MAZ1675 as substrate assessed as fluorogenic release of 7-amino-4-methylcoumarin from substrate by optimized homogenous assay.

The next test deals with T3, Histone deacetylase 8 (Homo sapiens, UniProt Q9BY41).
T3 sequence (Q9BY41 whole entry): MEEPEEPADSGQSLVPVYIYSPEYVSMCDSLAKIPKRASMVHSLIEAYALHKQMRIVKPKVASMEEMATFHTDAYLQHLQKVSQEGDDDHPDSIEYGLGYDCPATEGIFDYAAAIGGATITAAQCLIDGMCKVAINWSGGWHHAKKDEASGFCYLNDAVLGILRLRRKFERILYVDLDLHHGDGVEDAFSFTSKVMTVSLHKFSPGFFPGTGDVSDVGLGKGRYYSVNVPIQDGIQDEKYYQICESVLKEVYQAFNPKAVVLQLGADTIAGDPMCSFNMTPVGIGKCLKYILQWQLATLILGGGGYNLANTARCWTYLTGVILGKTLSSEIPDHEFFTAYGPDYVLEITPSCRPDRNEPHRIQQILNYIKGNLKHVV
The test can be described thus: Inhibition of HDAC8 (unknown origin) using MAZ1600 and MAZ1675 as substrate assessed as fluorogenic release of 7-amino-4-methylcoumarin from substrate by optimized homogenous assay.

With `CC(C)[C@@H]1NC(=O)[C@]2(C)CSC(=N2)c2coc(n2)CNC(=O)C[C@@H](/C=C/CCSSCC/C=C/[C@@H]2CC(=O)NCc3nc(co3)C3=N[C@@](C)(CS3)C(=O)N[C@@H](C(C)C)C(=O)O2)OC1=O`, the half-maximal inhibitory concentration (IC50) amounted to 50 nM in test [1]; 910 nM in test [2]; 150 nM at Histone deacetylase 1; 550 nM at Histone deacetylase 3; 1300 nM at Histone deacetylase 2.
In the same order, the values of `CCCCCCCC(=O)SCC/C=C/[C@@H]1CC(=O)NCc2nc(co2)C2=N[C@@](C)(CS2)C(=O)N[C@@H](C(C)C)C(=O)O1` are 1100 nM, 120 nM, 950 nM, 1900 nM and 2100 nM.
With `CC(C)[C@@H]1NC(=O)[C@]2(C)CSC(=N2)c2coc(n2)CNC(=O)C[C@@H](/C=C/CCS)OC1=O`, the IC50 in test [1] turned out to be 98 nM; in test [2], 6200 nM; on Histone deacetylase 7 it was 960 nM; on Histone deacetylase 1, 4.4 nM; at Histone deacetylase 8, 1200 nM; on Histone deacetylase 3, 7.2 nM. Besides, the concentration for half-maximal inhibition (IC50) on Histone deacetylase 2 worked out at 20 nM.
